In patent US6262031A, “Method for treating pediculosis capitisinfestation” (Merck & Co., Inc., priority 2000, dated 2001):

Key:
head lice [1] = experiment: Example 2: comparison of head lice treatment using orally administered ivermectin at cumulative doses of 200, 400 and 600 ug/kg; assay type: in vivo, human
Method: On Days 1, 4, 8 and 15, patients had their scalp inspected for viable nits and their hair shampooed (prior to dosing, if the day for scalp inspection was also a "dosing" day). The rinse water was filtered through a towel that enabled the number of lice (for each stage of nymphs and/or adult lice) to be recorded. An independent qualitative assessment was performed on a subset of towels. All patients were also seen on Days 5 and 9 for the assessment of clinical adverse experiences.
The primary analysis was based on treatment outcome (success or failure) on Day 15. "treatment success" is defined to mean that no live lice were observed on Day 15. "Reinfestation" corresponds to the condition where the patient, previously free of lice (including any stage nymphs and/or adult lice) on Day 8, is infested thereafter with adult lice. "Reinfestation" also corresponds to the condition where the patient, previously free of lice and nits, is infested thereafter with adult lice and first and second stage nymphs. The percent of treatment success was calculated.
(§1) Three groups of patients were treated.

[2] = Example 7: ivermectin plasma levels in fasted and fed state; assay type: in vivo, human; conditions: 30 mg oral; high fat meal vs fasting, three weeks apart
head lice [3] = experiment: Example 8: comparison of head lice treatment using orally administered ivermectin at cumulative doses of 800, 1200 and 600 ug/kg and shampoo cleaning; assay type: in vivo, human; conditions: for Treatment success (%) Day 15: washing shampoo the day after each dose
Method: On Days 1, 4 and 8, patients had their scalp inspected for nits and lice. Their hair was shampooed on Days 2, 5, 9, and 15. The rinse water was filtered through a towel that enabled the number of lice (for each stage of nymph and/or adult lice) to be recorded. An independent qualitative assessment was performed on those towels with live lice at Day 15. Clinical adverse experiences were collected at all visits.
The primary analysis was based on treatment outcome (success or failure) on Day 15. "Treatment success" is defined to mean that no live lice were observed on Day 15, or, if lice were present on Day 15, that they were the result of reinfestation. "Reinfestation" corresponds to the condition where the patient, previously free of lice (including any stage nymphs and/or adult lice) on Day 9, is infested thereafter with adult lice. Patients who were reinfested were counted as successes. The percent of treatment success was calculated.
as §1

[4] = system: glutamate-gated chloride ion channels; conditions: invertebrate nerve and muscle cells; cited from earlier work
[5] = system: mammalian ligand-gated chloride channels; conditions: cited from earlier work
Onchocerca volvulus [6] = conditions: cited from earlier work
[7] = system: Strongyloides stercoralis; conditions: cited from earlier work
[8] = ivermectin; cited from earlier work
Onchocerca volvulus [9] = conditions: single oral dose, cited from earlier work
[10] = system: adult worm of any species of Filarioidea; conditions: causing lymphatic filariasis, tropical pulmonary eosinophilia syndrome, lymphadenitis or lymphangitis; cited from earlier work
[11] = cited from earlier work
Pediculosis capitis = conditions: 200 ug/kg single oral dose, 26 patients; cited from earlier work
head lice [12] = conditions: single topical application; cited from earlier work
head lice [13] = conditions: single oral dose 100-200 ug/kg; cited from earlier work
nematodes = conditions: cited from earlier work

mixture containing at least 90% 5-O-demethyl-22,23-dihydroavermectin A1a and less than 10% 5-O-demethyl-25-de(1-methylpropyl)-22,23-dihyro-25-(1-methylethyl) avermectin A1a [ivermectin]
success rate, comparison of groups (head lice [1]; 200 ug/kg doses on Days 1, 4 and 8): highest success rate
Treatment success (%) Day 15 (head lice [1]; Group 1: oral 200 ug/kg on Day 1, 29 patients): 52%
Treatment success (%) Day 15 (head lice [1]; Group 2: oral 200 ug/kg on Days 1 and 8, 28 patients): 68%
Treatment success (%) Day 15 (head lice [1]; Group 3: oral 200 ug/kg on Days 1, 4 and 8, 31 patients): 81%
increase in bioavailability, fed vs fasted state [2]: 2.5 times
Treatment success (%) Day 15 (head lice [3]; Group 1: oral 400 ug/kg on Days 1 and 8, 57 patients): 98.2%
Treatment success (%) Day 15 (head lice [3]; Group 2: oral 400 ug/kg on Days 1, 4 and 8, 60 patients): 100%
Treatment success (%) Day 15 (head lice [3]; Group 3: oral 200 ug/kg on Days 1, 4 and 8, 57 patients): 100%
success rates, comparison of groups (head lice [3]; all three study groups, Day 15): comparable success rates
binding affinity to glutamate-gated chloride ion channels [4]: selectively binds with high affinity
effect of binding on cell membrane and parasite [4]: increase in the permeability of the cell membrane to chloride ions with hyperpolarization of the nerve or muscle cell, resulting in paralysis and death of the parasite
affinity for mammalian ligand-gated chloride channels [5]: low affinity
activity against the adult form (Onchocerca volvulus [6]; adult form): not against the adult form
activity against tissue microfilariae (Onchocerca volvulus [6]; tissue microfilariae): active against the tissue microfilariae
activity against Strongyloides stercoralis [7]: limited to the intestinal stages
plasma half-life [8]: about 12 hours
dermal microfilarial density (Onchocerca volvulus [9]; after one month): near zero
maintenance of low microfilarial level (Onchocerca volvulus [9]): up to 12 months
activity against adult worm of any species of Filarioidea [10]: has not been shown to have any activity against adult worm
overall incidences of adverse experiences ([11]; amicrofilaremic population, mass treatment programs): 1%
laboratory abnormalities ([11]; studies of microfilaremic patients): eosinophilia, liver function abnormalities and hematuria
effectiveness against head lice (Pediculosis capitis): effectiveness of ivermectin 200 mcg/kg single dose against head lice
curative effect on head lice (head lice [12]): absolute curative effect
effect on head lice infestation (head lice [13]): significant, but not absolute, effect
activity against life-cycle stages of nematodes (nematodes): active against various life-cycle stages of many but not all nematodes
